Experimental data as given in publication PMC3577712 (PLoS ONE, 2013).

Assays:
[1] = system: Influenza A/TW/70058/09 (H1N1); test: microbe, parasite or virus in culture; type: cell-based; conditions: H1N1, read-out: EC50, viral plaque reduction assay
[2] = system: Influenza A/TW/70066/09 (H1N1); test: microbe, parasite or virus in culture; type: cell-based; conditions: H1N1, read-out: EC50, viral plaque reduction assay

Q: With `Nc1c(S(=O)(=O)O)cc(Nc2cccc(S(=O)(=O)CCOS(=O)(=O)O)c2)c2c1C(=O)c1ccccc1C2=O` [RB19, Remazol Brilliant Blue R] as the molecule, how does the EC50 [1] read?
A: The EC50 was 9.8 µM.

Q: What about the EC50 [2] of the same molecule?
A: Its EC50 is 11.9 µM.
